Assay results taken from patent US8617614B2, “Sustained release preparation for tissue regeneration therapy” (Ono Pharmaceutical Co., Ltd., priority 2006, dated 2013).

Columns and labels:
[1] = Blood concentration measurement test; type: in vivo; settings: male, Crl:CD (Sprague-Dawley), rat, plasma, 10 mg/kg
Procedure: Male Crl:CD (Sprague-Dawley) rats (SPF; Charles River Japan; 8-week-old) were subcutaneously administered the various preparations (microspheres) shown in Table 9 below at a dose of 5 mL/kg under non-fasting conditions. […] The blood thus obtained was centrifuged at 12,000 rpm for 2 minutes, and the supernatant was collected as plasma.
Blood concentration measurements of the present drug in the resulting plasma were carried out by a LC/MS/MS method. Pretreatment of the plasma consisted of adding an internal standard solution to the plasma and diluting with water, then loading into a solid-phase extraction cartridge column (ODS-B) and deproteinization by rinsing with water, followed by elution with methanol, concentration, and drying to hardness. The residue thus obtained was dissolved by adding 0.1% aqueous acetic acid/acetonitrile, and the resulting solution was poured into the LC/MS/MS apparatus.
• Present drug (Precursor ion (m/z)*: 429.2; Product ion (m/z)*: 79.2) • Internal standard (Precursor ion (m/z)*: 445.4; Product ion (m/z)*: 168.1) • *: Mass-to-charge ratio Retention time for present drug: 8.15 minutes • Test Group 1: Microspheres of Test Preparation 1 were administered subcutaneously at a dose of the present drug of 10 mg/kg. • Test Group 2: Microspheres of Test Preparation 2 were administered subcutaneously at a dose of the present drug of 10 mg/kg. • Test Group 3: Administered subcutaneously at a dose of the present drug of 10 mg/kg. • Test Group 4: Administered orally at a dose of the present drug of 10 mg/kg.
The test preparations used on the respective dose groups were formulated as shown below in Table 9. Each of the test preparations was prepared in general accordance with the method described in Preparation Example 1.

[2] = test system: rat common carotid artery occlusion-disobliteration (4-VO) model; assay: Water maze learning ability, rat 4-VO model; type: in vivo
Source text: Nine-week-old male Crlj:WI rats were intraperitoneally administered pentobarbital sodium and, while under anesthesia, were secured in the prone position to a brain stereotaxic instrument. An occipital incision was made in the skin and muscle layer of the neck region, the left and right pterygoid foramina of the first cervical vertebra were exposed, and the vertebral arteries were thermocoagulated by inserting the tip of a soldering iron into each pterygoid foramen, thereby permanently occluding the bilateral vertebral arteries. Next, a midline incision was made in the anterior region of the neck, the common carotid arteries on both sides were exposed and detached, a silicone tube was passed under the arteries and placed annularly around the arteries, following which the skin of the neck region was sutured together. On the day after vertebral arterial cauterization, the animals were anesthetized with diethyl ether, then immobilized in the supine position. Both common carotid arteries were exposed using the silicone tube that had been placed on the common carotid arteries in the neck region and were temporarily occluded for 10 minutes with Sugita clips, then reopened. Aside from ischemia and disobliteration, the same procedure was carried out also on a normal group ([…]).
• Test Group 1: 4-VO+medium, 8 days • Test Group 2: 4-VO+present drug, 10 mg/kg, twice daily, for 8 days • Test Group 3: 4-VO+present drug, 1 mg/kg, twice daily, for 42 days (evaluation of nerve cell number only) (2) Evaluation of number of nerve cells in CA1 region excised from brain (Groups 4 to 7) following measurement of water maze learning ability (Groups 4 to 7) • Test Group 4: normal (sham group)+medium, 42 days (normal control) • Test Group 5: 4-VO+medium, 42 days (solvent control) • Test Group 6: 4-VO+present drug, 10 mg/kg, twice daily for 42 days • Test Group 7: 4-VO+solvent for 8 days+present drug, 10 mg/kg, twice daily, for 34 days (evaluation of regenerative activity) (3) Pathology: Perfusion and fixing of the brain was carried out on day 8 in Test Groups 1 and 2, and on the day after the water maze learning ability test in Groups 4 to 7. The number of nerve cells was then counted by the same method as described above in Test 1. In Test Group 3, after drug administration was stopped, the brains were fixed at the same time as in Test Groups 4 to 7. (4) Measurement of Water Maze Learning Ability
Using Test Groups […], the […] were investigated with a Morris water maze in such a way as to avoid a bias between the groups.
A clear acrylic platform (about 12 cm in diameter and about 30 cm in height) which cannot be visually detected and a circular pool (about 148 cm in diameter and about 44 cm in height) made of gray vinyl chloride and filled with water (water temperature, 17 to 18° C.) to a height of about 32 cm so that the platform is hidden by the water were used.
The pool was divided into four quadrants, the platform was placed at the center of the fourth quadrant (about 36 cm from the center of the pool), and light bulbs were placed at the perimeter of the pool to provide a spatial reference.
Following the final drug dose, a drug-free period of at least 2 weeks was provided, after which the rat was placed in the pool from one of several points A to E with its head facing the circular pool wall, and the time it took to reach the platform (goal latency; seconds) was measured with a stopwatch (the measurement time was a maximum of 90 seconds). When the rat reached the platform within 90 seconds and remained on the platform for 30 seconds, it was judged to be aware of the platform location and measurement was brought to an end.
Goal latency measurements were carried out twice daily (once in the morning, and once in the afternoon) on days 1 to 4. The rat was placed in the pool from the various points A to E with its head facing the wall of the circular pool. […]

[3] = po, Test Group 4: present drug oral 10 mg/kg
[4] = sc, Test Group 3: present drug s.c. 10 mg/kg
[5] = Test Group 6: 10 mg/kg oral twice daily 42 days
[6] = Test Group 7: solvent 8 days, then 10 mg/kg oral twice daily 34 days

concentration at 1 hour [1, 3]: 785 ng/mL
concentration at 2 hours [1, 3]: 982 ng/mL
concentration at 4 hours [1, 3]: 1320 ng/mL
concentration at 8 hours [1, 3]: 705 ng/mL
concentration at 1 day [1, 3]: 80 ng/mL
concentration at 3 days [1, 3]: 0.04 ng/mL
concentration at 1 hour [1, 4]: 1750 ng/mL
concentration at 2 hours [1, 4]: 1400 ng/mL
concentration at 4 hours [1, 4]: 685 ng/mL
concentration at 8 hours [1, 4]: 870 ng/mL
concentration at 12 hours ([1]; sc, Test Group 3: present drug s.c. 10 mg/kg, 12 hours): 204 ng/mL
concentration at 1 day [1, 4]: 1.05 ng/mL
concentration at 2 days ([1]; sc, Test Group 3: present drug s.c. 10 mg/kg, 2 days): < 0.2 ng/mL
concentration at 3 days [1, 4]: 0.05 ng/mL
SMILES: O=C(O)COc1cccc2c1CCC=C2CCO/N=C(\c1ccccc1)c1cccnc1 [present drug, ({5-[2-({[(1E)-phenyl(pyridin-3-yl)methylene]amino}oxy)ethyl]-7,8-dihydronaphthalen-1-yl}oxy)acetic acid]
Distance traveled until rat reaches platform, AUC for Days 1 to 4 (average) [2, 5]: 3932.8 ± 1115.1
Goal latency (seconds) Acquisition trials Day 1 (average) [2, 5]: 71.8 ± 18.3 s
Goal latency (seconds) Acquisition trials Day 2 (average) [2, 5]: 58.8 ± 22.1 s
Goal latency (seconds) Acquisition trials Day 3 (average) [2, 5]: 41.3 ± 28.8 s
Goal latency (seconds) Acquisition trials Day 4 (average) [2, 5]: 33.9 ± 23.2 s
Goal latency (seconds) Acquisition trials Trials 1 to 8 (average) [2, 5]: 51.5 ± 11.9 s
Goal latency, AUC for Days 1 to 4 (average) [2, 5]: 152.9 ± 42.7
goal latency (seconds) and distance traveled relative to the solvent control group (Test Group 5) ([2]; Test Group 6: oral 10 mg/kg twice daily): significant shortening
goal latency (seconds) and distance traveled relative to the solvent control group (Test Group 5) ([2]; Test Group 7: medium up to day 8, oral 10 mg/kg twice daily from day 9): significant shortening
Distance traveled until rat reaches platform, AUC for Days 1 to 4 (average) [2, 6]: 3850.5 ± 832.5
Goal latency (seconds) Acquisition trials Day 1 (average) [2, 6]: 73.8 ± 15.2 s
Goal latency (seconds) Acquisition trials Day 2 (average) [2, 6]: 55.4 ± 29.6 s
Goal latency (seconds) Acquisition trials Day 3 (average) [2, 6]: 41.7 ± 26.7 s
Goal latency (seconds) Acquisition trials Day 4 (average) [2, 6]: 25.8 ± 15.2 s
Goal latency (seconds) Acquisition trials Trials 1 to 8 (average) [2, 6]: 49.2 ± 10.1 s
Goal latency, AUC for Days 1 to 4 (average) [2, 6]: 146.9 ± 40.5
